The source of these data is the supplement of paper PMC8967900.
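Further: ALL cell lines in 384-well plates, five doses spanning 10,000-fold, each plate scaled between vehicle and 100 µmol/L benzalkonium chloride controls, sDSS an adapted area-under-curve metric.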

The first test concerns MHH-CALL-4. As to the kind of experiment: selective drug sensitivity score (sDSS, relative to normal bone marrow) (sDSS (score)); higher = more potent and effective on the cell line relative to normal bone marrow cells. Conditions: 72 h.
`COc1cc(CCc2cc(NC(=O)c3ccc(N4CC(C)NC(C)C4)cc3)n[nH]2)cc(OC)c1` (stereo not drawn) [AZD4547] (top concentration 1000 nM): the “selective drug sensitivity score” value was -0.14.

On to `CN(C)C(=O)c1ccc(S(=O)(=O)c2ccc(NC(=O)[C@@](C)(O)C(F)(F)F)c(Cl)c2)cc1` [AZD7545] (top concentration 10000 nM), for which the “selective drug sensitivity score” value was -0.2.

Consider `COc1cc(C)c(/C=C/C(C)=C/C=C/C(C)=C/C(=O)O)c(C)c1C` [Acitretin] (top concentration 10000 nM), for which the “selective drug sensitivity score” value was -1.6.

Consider `CCC1(c2ccc(N)cc2)CCC(=O)NC1=O` (stereo not drawn) [Aminoglutethimide] (top concentration 10000 nM), for which the “selective drug sensitivity score” value came out at 0.5.

As to `CNC(=O)c1ccc(N2C(=S)N(c3cnc(C#N)c(C(F)(F)F)c3)C(=O)C23CCC3)cc1F` [Apalutamide] (top concentration 10000 nM), the “selective drug sensitivity score” value was 0.

In the case of `N#CC1(c2ccc(NC(=O)c3cccnc3NCc3ccncc3)cc2)CCCC1` [Apatinib] (top concentration 10000 nM), the “selective drug sensitivity score” value was 0.

As to `Cc1nc2cccc(N)c2c(=O)n1C1CCC(=O)NC1=O` (stereo not drawn) [Avadomide (CC122)] (top concentration 10000 nM), the “selective drug sensitivity score” value came to 3.9.

With `Nc1nc(Nc2ccc3c(c2)CC[C@@H](N2CCCC2)CC3)nn1-c1cc2c(nn1)-c1ccccc1CCC2` [BGB324] (top concentration 10000 nM), the “selective drug sensitivity score” value is -2.88.

Turning to `CC1(C)C(C(=O)Nc2ccc(S(=O)(=O)c3ccc(NC(=O)C4C(C)(C)C4(C)C)cc3)cc2)C1(C)C` [BRD7116] (top concentration 10000 nM), the “selective drug sensitivity score” value is -0.24.

As to `CCS(=O)(=O)N1CC(CC#N)(n2cc(-c3ncnc4[nH]ccc34)cn2)C1` [Baricitinib] (top concentration 2500 nM), the “selective drug sensitivity score” value is -1.24.

The subject of a further test is MN-60. The test is described as above. Conditions: 72 h.
On to `CNC(=O)c1ccc(C)c(-n2c(C)cc(OCc3ccc(F)cc3F)c(Br)c2=O)c1` (top concentration 1000 nM), for which the “selective drug sensitivity score” value is 0.

Turning to `CONC(=O)c1ccccc1Nc1cc(Nc2cc(C)nn2C(C)C)ncc1Cl` (top concentration 1000 nM), the “selective drug sensitivity score” value is -0.94.

For the molecule `CCOc1ccn(-c2ccc(F)cc2)c(=O)c1C(=O)Nc1ccc(Oc2ccnc(N)c2Cl)c(F)c1` (top concentration 2500 nM), the “selective drug sensitivity score” value came to 0.

On to `CC[C@@H]1[C@H](F)C(=O)N[C@@H]1COc1nccc2cc(C(N)=O)c(OC)cc12` (top concentration 10000 nM), for which the “selective drug sensitivity score” value was 5.88.

On to `C[C@H]1C[C@@H](n2c(Nc3ccc(OC(F)(F)F)cc3)nc3cc(CCC(=O)O)ccc32)CC(C)(C)C1` (top concentration 10000 nM), for which the “selective drug sensitivity score” value was -0.04.

For `O=C(NCc1ccncc1)C12CC3CC(C1)CC(c1ccc(Cl)cc1)(C3)C2` (top concentration 50000 nM), the “selective drug sensitivity score” value was -0.02.

On to `O=C(O)c1ccc(CN2CCC(CN[C@@H]3C[C@H]3c3ccccc3)CC2)cc1` (top concentration 100000 nM), for which the “selective drug sensitivity score” value was -0.62.

On to `COc1cc(N2CCN(C)CC2)ccc1Nc1nccc(-c2cn(C)c3cnccc23)n1` [AZ191] (top concentration 10000 nM), for which the “selective drug sensitivity score” value was -1.92.

On to `Cc1cc(Nc2nc(N[C@@H](C)c3ncc(F)cn3)ncc2Cl)[nH]n1` [AZD1480] (top concentration 1000 nM), for which the “selective drug sensitivity score” value was -4.28.

Take `COc1cc(CCc2cc(NC(=O)c3ccc(N4CC(C)NC(C)C4)cc3)n[nH]2)cc(OC)c1` (stereo not drawn) [AZD4547] (top concentration 1000 nM): the “selective drug sensitivity score” value is -0.14.

Take `CN(C)C(=O)c1ccc(S(=O)(=O)c2ccc(NC(=O)[C@@](C)(O)C(F)(F)F)c(Cl)c2)cc1` [AZD7545] (top concentration 10000 nM): the “selective drug sensitivity score” value is 3.3.

In the case of `COc1cc(C)c(/C=C/C(C)=C/C=C/C(C)=C/C(=O)O)c(C)c1C` [Acitretin] (top concentration 10000 nM), the “selective drug sensitivity score” value is -1.6.

Take `CCC1(c2ccc(N)cc2)CCC(=O)NC1=O` (stereo not drawn) [Aminoglutethimide] (top concentration 10000 nM): the “selective drug sensitivity score” value was 0.

Regarding `CNC(=O)c1ccc(N2C(=S)N(c3cnc(C#N)c(C(F)(F)F)c3)C(=O)C23CCC3)cc1F` [Apalutamide] (top concentration 10000 nM), the “selective drug sensitivity score” value came to 0.

With `N#CC1(c2ccc(NC(=O)c3cccnc3NCc3ccncc3)cc2)CCCC1` [Apatinib] (top concentration 10000 nM), the “selective drug sensitivity score” value came to 0.

`Cc1nc2cccc(N)c2c(=O)n1C1CCC(=O)NC1=O` (stereo not drawn) [Avadomide (CC122)] (top concentration 10000 nM): the “selective drug sensitivity score” value is 2.3.

On to `Nc1nc(Nc2ccc3c(c2)CC[C@@H](N2CCCC2)CC3)nn1-c1cc2c(nn1)-c1ccccc1CCC2` [BGB324] (top concentration 10000 nM), for which the “selective drug sensitivity score” value is -2.48.

As for `CC1(C)C(C(=O)Nc2ccc(S(=O)(=O)c3ccc(NC(=O)C4C(C)(C)C4(C)C)cc3)cc2)C1(C)C` [BRD7116] (top concentration 10000 nM), the “selective drug sensitivity score” value is -0.04.

In the case of `CCS(=O)(=O)N1CC(CC#N)(n2cc(-c3ncnc4[nH]ccc34)cn2)C1` [Baricitinib] (top concentration 2500 nM), the “selective drug sensitivity score” value is -1.94.

Another test relates to MOLT-4. The test is described as above. Particulars: 72 h.
As to `CNC(=O)c1ccc(C)c(-n2c(C)cc(OCc3ccc(F)cc3F)c(Br)c2=O)c1` (top concentration 1000 nM), the “selective drug sensitivity score” value is 0.

`CONC(=O)c1ccccc1Nc1cc(Nc2cc(C)nn2C(C)C)ncc1Cl` (top concentration 1000 nM): the “selective drug sensitivity score” value is -0.94.

In the case of `CCOc1ccn(-c2ccc(F)cc2)c(=O)c1C(=O)Nc1ccc(Oc2ccnc(N)c2Cl)c(F)c1` (top concentration 2500 nM), the “selective drug sensitivity score” value came out at 0.1.

On to `CC[C@@H]1[C@H](F)C(=O)N[C@@H]1COc1nccc2cc(C(N)=O)c(OC)cc12` (top concentration 10000 nM), for which the “selective drug sensitivity score” value was 2.48.

As to `C[C@H]1C[C@@H](n2c(Nc3ccc(OC(F)(F)F)cc3)nc3cc(CCC(=O)O)ccc32)CC(C)(C)C1` (top concentration 10000 nM), the “selective drug sensitivity score” value stood at 3.06.

For `O=C(NCc1ccncc1)C12CC3CC(C1)CC(c1ccc(Cl)cc1)(C3)C2` (top concentration 50000 nM), the “selective drug sensitivity score” value was 1.98.

For the molecule `O=C(O)c1ccc(CN2CCC(CN[C@@H]3C[C@H]3c3ccccc3)CC2)cc1` (top concentration 100000 nM), the “selective drug sensitivity score” value is -0.62.

On to `COc1cc(N2CCN(C)CC2)ccc1Nc1nccc(-c2cn(C)c3cnccc23)n1` [AZ191] (top concentration 10000 nM), for which the “selective drug sensitivity score” value is -3.32.

Consider `Cc1cc(Nc2nc(N[C@@H](C)c3ncc(F)cn3)ncc2Cl)[nH]n1` [AZD1480] (top concentration 1000 nM), for which the “selective drug sensitivity score” value was -3.28.

Take `COc1cc(CCc2cc(NC(=O)c3ccc(N4CC(C)NC(C)C4)cc3)n[nH]2)cc(OC)c1` (stereo not drawn) [AZD4547] (top concentration 1000 nM): the “selective drug sensitivity score” value was -0.14.

Turning to `CN(C)C(=O)c1ccc(S(=O)(=O)c2ccc(NC(=O)[C@@](C)(O)C(F)(F)F)c(Cl)c2)cc1` [AZD7545] (top concentration 10000 nM), the “selective drug sensitivity score” value came to 1.6.

For the molecule `COc1cc(C)c(/C=C/C(C)=C/C=C/C(C)=C/C(=O)O)c(C)c1C` [Acitretin] (top concentration 10000 nM), the “selective drug sensitivity score” value was -1.2.

Regarding `CCC1(c2ccc(N)cc2)CCC(=O)NC1=O` (stereo not drawn) [Aminoglutethimide] (top concentration 10000 nM), the “selective drug sensitivity score” value came out at 0.

For `CNC(=O)c1ccc(N2C(=S)N(c3cnc(C#N)c(C(F)(F)F)c3)C(=O)C23CCC3)cc1F` [Apalutamide] (top concentration 10000 nM), the “selective drug sensitivity score” value came to 0.

As for `N#CC1(c2ccc(NC(=O)c3cccnc3NCc3ccncc3)cc2)CCCC1` [Apatinib] (top concentration 10000 nM), the “selective drug sensitivity score” value was 0.

Turning to `Cc1nc2cccc(N)c2c(=O)n1C1CCC(=O)NC1=O` (stereo not drawn) [Avadomide (CC122)] (top concentration 10000 nM), the “selective drug sensitivity score” value came to 0.

For `Nc1nc(Nc2ccc3c(c2)CC[C@@H](N2CCCC2)CC3)nn1-c1cc2c(nn1)-c1ccccc1CCC2` [BGB324] (top concentration 10000 nM), the “selective drug sensitivity score” value was 3.22.

Consider `CC1(C)C(C(=O)Nc2ccc(S(=O)(=O)c3ccc(NC(=O)C4C(C)(C)C4(C)C)cc3)cc2)C1(C)C` [BRD7116] (top concentration 10000 nM), for which the “selective drug sensitivity score” value was found to be 0.66.

Take `CCS(=O)(=O)N1CC(CC#N)(n2cc(-c3ncnc4[nH]ccc34)cn2)C1` [Baricitinib] (top concentration 2500 nM): the “selective drug sensitivity score” value was -1.94.
